Laboratory results from US20050101574A1, “Parathyroid hormone production inhibitors containing vitamin d3 derivatives” (priority 2000, published 2005).

Assays:
[1] = system: calcium concentration in serum; assay: Calcium concentration in serum of vitamin D deficient rats after intravenous administration (OCPC method); conditions: for Calcium conc. in serum: Table 4: vitamin D deficient rats; for Calcium conc. in serum / Calcium conc.: i.v., mean ± standard error, n = 5
Description: (§2) (1) Male Wistar rats of 4 weeks old were purchased from Japan SLC (SLC, Shizuoka prefecture). The rats were put into wire cages three for each cage and bred under the condition of 23±1° C. and 55±10% humidity by allowing the rats to free ingestion of a vitamin D deficient feed for animal breeding (Ca, 0.0036%; P, 0.3%; Harlan Teklad Research Diet, Madison, Wis., U.S.A.) and drinking water (well water treated with 0.4%±0.2 ppm hypochlorite) for 7 weeks. The number of animals were five for one group.
(§3) (2) As shown in the Table 2, the negative control group (Group 1) was administered with a solvent (5% ethanol/0.1% Triton X-100/physiological saline solution) and the positive control group (Group 2) was administered with 0.5 μg/kg of 1α,25-dihydroxyvitamin D3 by intravenous administration.
(§4) (2) As shown in the Table 3, the negative control group (Group 1) was administered with a solvent (5% ethanol/0.1% Triton X-100/physiological saline solution) and the positive control group (Group 2) was administered with 0.25 μg/kg of 1α,25-dihydroxyvitamin D3 by intravenous administration.
(§5) (2) As shown in the Table 4, the negative control group (Group 1) was administered with a solvent (5% ethanol/0.1% Triton X-100/physiological saline solution) and the positive control group (Group 2) was administered with 1α,25-dihydroxyvitamin D3 at a dose of 0.1 μg/kg, 0.5 μg/kg and 2.5 μg/kg by intravenous administration.

[2] = system: PTH concentration in serum; assay: PTH concentration in serum of vitamin D deficient rats after intravenous administration (radioimmunoassay); format: in vivo, rat; conditions: for PTH conc.: mean ± standard error, n = 5
Description: The number of animals were five for one group.
The volume of administered liquid was 2 mL/kg.
(§1) The volume of administered solution was 2 mL/kg.

[3] = system: calcium concentration in serum; conditions: rat, in vivo
Description: as §2, §3, §4, §5

[4] = system: intestinal calcium absorption; assay: Calcium absorption activity of the intestinal canal (duodenum) of vitamin D deficient rats, inverted gut sac method; format: in vivo, rat; design: Intestinal calcium absorption: unit not given here; conditions: for Intestinal calcium absorption: Table 4: vitamin D deficient rats, i.v., Time 8 hrs, mean ± standard error, n = 5; for intestinal calcium absorption promoting activity: 8 hours, vitamin D deficient rats
Description: as §1
J. Physiol., vol.216, pp. 1351-1359, 1969.

[5] = intravenous administration at a dose of 0.5 μg/kg, vitamin D deficient rats

`C=C1/C(=C\C=C2/CCC[C@]3(C)[C@@H]([C@H](C)CCCC(C)(C)O)CC[C@@H]23)C[C@@H](O)C[C@@H]1O` [1α,25-dihydroxyvitamin D3] was tested, and the “Calcium conc. in serum” value ([1]; Administration Rate 0.1 (mg/kg), Time 8 hrs) was 5.30 ± 0.10 mg/100 ml serum, the “Calcium conc. in serum” value ([1]; Administration Rate 0.5 (mg/kg), Time 8 hrs) was 5.90 ± 0.40 mg/100 ml serum and the “Calcium conc. in serum” value ([1]; Administration Rate 2.5 (mg/kg), Time 8 hrs) was 6.17 ± 0.07 mg/100 ml serum. For the same compound, the “time after administration of the maximum level of calcium concentration in serum” value [1, 5] was 8 h, the Calcium conc. ([1]; vitamin D deficient rats, Administration Rate 0.5 (mg/kg), Time 4 hrs) was 5.33 ± 0.09 mg/100 ml serum and the Calcium conc. ([1]; vitamin D deficient rats, Administration Rate 0.5 (mg/kg), Time 8 hrs) was 6.00 ± 0.17 mg/100 ml serum. For the same compound, the Calcium conc. ([1]; vitamin D deficient rats, Administration Rate 0.5 (mg/kg), Time 24 hrs) was 5.87 ± 0.22 mg/100 ml serum, the Calcium conc. ([1]; vitamin D deficient rats, Administration Rate 0.5 (mg/kg), Time 48 hrs) was 5.48 ± 0.15 mg/100 ml serum and the Calcium conc. ([1]; vitamin D deficient rats, Administration Rate 0.5 (mg/kg), Time 72 hrs) was 5.10 ± 0.18 mg/100 ml serum. For the same compound, the PTH conc. ([2]; Table 3: vitamin D deficient rats, i.v., Administration Rate 0.25, Time 8 hrs) was 459 ± 14 pg/ml serum, the “time after administration of the lowest level of PTH concentration in serum” value [2, 5] was 24 h and the PTH conc. ([2]; vitamin D deficient rats, i.v., Administration Rate 0.5, Time 4 hrs) was 458 ± 38 pg/ml serum. It also gave a PTH conc. ([2]; vitamin D deficient rats, i.v., Administration Rate 0.5, Time 8 hrs) of 399 ± 2 pg/ml serum, a PTH conc. ([2]; vitamin D deficient rats, i.v., Administration Rate 0.5, Time 24 hrs) of 325 ± 31 pg/ml serum and a PTH conc. ([2]; vitamin D deficient rats, i.v., Administration Rate 0.5, Time 48 hrs) of 488 ± 43 pg/ml serum. For the same compound, the PTH conc. ([2]; vitamin D deficient rats, i.v., Administration Rate 0.5, Time 72 hrs) was 555 ± 67 pg/ml serum.
For `C=C1CC(CC(C)C2CCC3C(=CC=C4CC(O)CC(O)C4=C)CCCC32C)OC1=O` [Compound 11 (23S isomer), (23S)-25-dehydro-1α,25-dihydroxyvitamin D3-26,23-lactone], the PTH conc. ([2]; Table 2: vitamin D deficient rats, i.v., Administration Rate 50, Time 4 hrs) was 354 ± 65 pg/ml serum, the PTH conc. ([2]; Table 2: vitamin D deficient rats, i.v., Administration Rate 50, Time 8 hrs) was 330 ± 72 pg/ml serum and the PTH conc. ([2]; Table 2: vitamin D deficient rats, i.v., Administration Rate 50, Time 24 hrs) was 319 ± 1 pg/ml serum. The PTH conc. ([2]; Table 2: vitamin D deficient rats, i.v., Administration Rate 50, Time 48 hrs) was 436 ± 51 pg/ml serum, the PTH conc. ([2]; Table 2: vitamin D deficient rats, i.v., Administration Rate 50, Time 72 hrs) was 528 ± 38 pg/ml serum and the PTH conc. ([2]; Table 3: vitamin D deficient rats, i.v., Administration Rate 2, Time 8 hrs) was 488 ± 47 pg/ml serum. For the same compound, the PTH conc. ([2]; Table 3: vitamin D deficient rats, i.v., Administration Rate 10, Time 8 hrs) was 385 ± 65 pg/ml serum, the PTH conc. ([2]; Table 3: vitamin D deficient rats, i.v., Administration Rate 50, Time 8 hrs) was 319 ± 56 pg/ml serum and the “PTH concentration in serum” value ([2]; intravenous administration at a dose of 10 μg/kg, vitamin D deficient rats (Example 1)) was “significantly lowered”. The “time after administration of the lowest level of PTH concentration in serum” value ([2]; intravenous administration at a dose of 50 μg/kg, vitamin D deficient rats) was 24 h, the “serum PTH concentration lowering action relative to the action of 1α,25-dihydroxyvitamin D3” value ([2]; ratio to 1α,25-dihydroxyvitamin D3, vitamin D deficient rats, i.v., 8 hours) was 1/12 and the “effect on PTH concentration in serum versus serum calcium concentration (conclusion in words)” value ([2]; vitamin D deficient rats, Examples 1, 2 and 3) was “effective for lowering the PTH concentration in serum without changing the calcium concentration in serum”. For the same compound, the calcium metabolism activity [3] was “absolutely unobservable”, the Intestinal calcium absorption ([4]; Administration Rate 10 (mg/kg)) was 1.89 ± 0.04 and the Intestinal calcium absorption ([4]; Administration Rate 50 (mg/kg)) was 2.32 ± 0.21. The Intestinal calcium absorption ([4]; Administration Rate 250 (mg/kg)) was 2.53 ± 0.10, the “intestinal calcium absorption promoting activity” value ([4]; administration dose of from 50 μg/kg to 250 μg/kg i.v.) was “weak” and the “intestinal calcium absorption promoting activity” value ([4]; dose of 10 μg/kg i.v.) was “absolutely unobservable”.
